This note sets out measurements from patent US20170334899A1, “AMINO-SUBSTITUTED ISOTHIAZOLES” (Bayer Pharma Aktiengesellschaft, priority 2014, published 2017).

For assay [1], the system named is human cervical tumor cell line HeLa (ATCC CCL-2). Nature of the assay: SAC-Formation - Nocodazole-Induced Assay. In kind it is cell-based. As to conditions: Homo sapiens, HeLa, 24 h, HeLa cells, nocodazole 0.1 μg/ml together with test compound, decrease of mitotic cells (phospho-histone H3 Ser10). In outline:
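Loss of phospho-histone H3 Ser10-positive cells, counted against Hoechst-stained nuclei by high-content imaging, marked mitotic breakthrough. Compounds (0.005–20 μM, 0.5% DMSO) were co-dosed with 0.1 μg/ml nocodazole onto HeLa cells for 24 h at 37 °C. Curves were fitted with a four-parameter Hill equation.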

The subject of another assay is HeLa. Nature of the assay: Proliferation assay (crystal violet), HeLa. It counts as cell-based. As to conditions: Homo sapiens, HeLa, 96 h, HeLa cells; 4 days incubation; crystal violet staining; read-out: IC50 inhibition of proliferation, HeLa. The essentials:
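Absorbance at 595 nm of crystal-violet-stained cells after 4 days' exposure to 0.001–10 μM compound (0.5% DMSO). Values normalized to a day-0 plate (0%) and untreated cells (100%); IC50 by 4-parameter fit.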

In the case of `Cc1nsc(Nc2cnc(C(F)(F)F)cn2)c1C(=O)Nc1ccc(F)c(OCC2CCN(CCF)C2)c1` (stereo not shown) [Example 317, N-(4-fluoro-3-{[1-(2-fluoroethyl)pyrrolidin-3-yl]methoxy}phenyl)-3-methyl-5-{[5-(trifluoromethyl)pyrazin-2-yl]amino}-1,2-thiazole-4-carboxamide], the results for the IC50 (in assay [1]; in the assay with HeLa) were 88 nM and 450 nM, respectively.

`Cc1nsc(Nc2cnc(C(F)(F)F)cn2)c1C(=O)Nc1ccc(F)c(OC2CCN(CCF)CC2)c1` [Example 266, N-(4-fluoro-3-{[1-(2-fluoroethyl)piperidin-4-yl]oxy}phenyl)-3-methyl-5-{[5-(trifluoromethyl)pyrazin-2-yl]amino}-1,2-thiazole-4-carboxamide]: the IC50 in assay [1] is 150 nM; in the assay on HeLa, 310 nM.

Consider `Cc1nsc(Nc2cnc(C(F)(F)F)cn2)c1C(=O)Nc1ccc(F)c(OCC2CCN(CC(F)F)C2)c1` (stereo not shown) [Example 316, N-(3-{[1-(2,2-difluoroethyl)pyrrolidin-3-yl]methoxy}-4-fluorophenyl)-3-methyl-5-{[5-(trifluoromethyl)pyrazin-2-yl]amino}-1,2-thiazole-4-carboxamide], for which the values for the IC50 (in assay [1]; in the assay on HeLa) were 28 nM and 430 nM, respectively.

As to `Cc1nsc(Nc2cnc(C(F)(F)F)cn2)c1C(=O)Nc1cccc(NC(=O)OC(C)(C)C)c1` [Example 284, 3-tert-butyl (3-{[(3-methyl-5-{[5-(trifluoromethyl)pyrazin-2-yl]amino}-1,2-thiazol-4-yl)carbonyl]amino}phenyl)carbamate], the IC50 in assay [1] was 76 nM; with HeLa it was 540 nM.

On to `Cc1nsc(Nc2cnc(C(F)(F)F)cn2)c1C(=O)Nc1ccc(F)c(OCCCNCCC(F)(F)F)c1` [Example 307, N-(4-fluoro-3-{3-[(3,3,3-trifluoropropyl)amino]propoxy}phenyl)-3-methyl-5-{[5-(trifluoromethyl)pyrazin-2-yl]amino}-1,2-thiazole-4-carboxamide], for which the results for the IC50 (in assay [1]; with HeLa) were 99 nM and 690 nM, respectively.

Consider `Cc1nsc(Nc2cnc(C(F)(F)F)cn2)c1C(=O)Nc1ccc(OCCCNCC(F)(F)F)nc1` [Example 292, 3-methyl-N-(6-{3-[(2,2,2-trifluoroethyl)amino]propoxy}pyridin-3-yl)-5-{[5-(trifluoromethyl)pyrazin-2-yl]amino}-1,2-thiazole-4-carboxamide], for which the IC50 worked out at 980 nM in assay [1] and 1800 nM in the assay on HeLa.

Consider `Cc1nsc(Nc2cncc(C(F)(F)F)n2)c1C(=O)Nc1ccc(C(=O)NC2CN(CC(F)(F)F)C2)cc1` [Example 280, 3-methyl-N-(4-{[1-(2,2,2-trifluoroethyl)azetidin-3-yl]carbamoyl}phenyl)-5-{[6-(trifluoromethyl)pyrazin-2-yl]amino}-1,2-thiazole-4-carboxamide], for which the figures for the IC50 (in assay [1]; in the assay on HeLa) were 670 nM and more than 10000 nM, respectively.

Regarding `Cc1nsc(Nc2cc(C#N)ccn2)c1C(=O)Nc1cccc(C(=O)NC(C)C)c1` [Example 254, 5-[(4-cyanopyridin-2-yl)amino]-N-[3-(isopropylcarbamoyl)phenyl]-3-methyl-1,2-thiazole-4-carboxamide], the results for the IC50 (in assay [1]; in the assay on HeLa) were 2800 nM and more than 10000 nM, respectively.
